Measured values published in PubChem BioAssay AID1645848.
In brackets after ≈: the same amount, converted by molar mass.

Settings: buffer; pH 7.4; 6.0 h; 150.0 µM

Structure (SMILES) | solubility kinetic
CCCCN(C)C(=O)c1c(C)sc2ccn(CCC)c(=O)c12 | > 32 µg/mL
COC(=O)C1=C(C)NC(C)=C(C(=O)OCCCN2CCC(c3ccccc3)(c3ccccc3)CC2)C1c1cccc([N+](=O)[O-])c1.Cl (centres undefined) | < 1 µg/mL
CCOC(=O)C1CCN(C(=O)C2(NC(=O)Nc3ccccc3Cl)CCCC2)CC1 | 41.8 µg/mL (≈ 99 µM)
Nc1c(-c2ccccc2)cc[nH]c1=O | 12.9 µg/mL (≈ 69.1 µM)
CC(C)(C)C1CCc2c(sc(NC(=O)c3ccncc3)c2C(N)=O)C1 (centres undefined) | < 1 µg/mL
CNS(=O)(=O)c1cc(-c2nn3c(C)nnc3c3ccccc23)ccc1C | 4.84 µg/mL (≈ 13.2 µM)
COc1ccc(Nc2nc(-c3ccncc3)nc3ccccc23)cc1F | < 1 µg/mL
CN1CCCC1CCOC(c1cc2nccc(C(=O)O)c2[nH]1)c1ccccc1Cl (centres undefined) | > 61 µg/mL
Cc1ccc(S(=O)(=O)Nc2ccccc2C(=O)Nc2ccc(-c3ccccc3)nn2)cc1 | < 1 µg/mL
Cc1ccccc1C(=O)Nc1sc2c(c1C(=O)NCc1ccco1)CCC(C(C)(C)C)C2 (centres undefined) | < 1 µg/mL
COc1ccc(OC)c(-c2cc(C(=O)N3CCN(c4ncccn4)CC3)c3ccccc3n2)c1 | 24.5 µg/mL (≈ 53.7 µM)
COc1cc2c(Nc3ccc(Br)cc3F)ncnc2cc1OCC1CCN(C)CC1 | > 70 µg/mL
CCOc1ccccc1N(CC(=O)Nc1cc(OC)ccc1OC)S(=O)(=O)c1ccccc1 | < 1 µg/mL
CC1=C(C(=O)Nc2nncs2)C(c2[nH]ncc2Cl)N=C(Nc2nc3ccccc3o2)N1 (centres undefined) | 34.6 µg/mL (≈ 75.8 µM)
COc1ccc(Nc2ncnc3c2cnn3-c2ccc(C)cc2)cc1Cl | 0.075 µg/mL (≈ 0.205 µM)
COc1ccc(CNc2ccc(S(=O)(=O)Nc3nccs3)cc2)c(O)c1 | 45.4 µg/mL (≈ 116 µM)
O=C(O)c1ccc(N2C(=O)/C(=C/c3ccc(-c4ccc([N+](=O)[O-])cc4)o3)C=C2c2ccccc2)cc1 | 31.4 µg/mL (≈ 65.6 µM)
CCC(CC)c1cc([C@H]2CN3CC[C@H]2C[C@@H]3CNC(=O)Cc2cccs2)nc(-c2ccncc2)n1 | > 72 µg/mL
NC(=O)C1CCN(c2nc(-c3ccc([N+](=O)[O-])cc3)cs2)CC1 | 1.7 µg/mL (≈ 5.1 µM)
COc1ccc2c(c1)CN(C(=O)CCN1CCC(Cc3ccccc3)CC1)CCS2 | > 63 µg/mL
COc1cccc(CNc2ccc(S(=O)(=O)Nc3ccc(N4CCNCC4)nc3)cc2)c1O | 55.9 µg/mL (≈ 119 µM)
c1cc(-c2cc(-c3ccncc3)c3cncn3c2)c2[nH]ccc2c1 | < 1 µg/mL
O=C(c1ccc2ccccc2c1)N1CCN(c2ccc(O)cc2)CC1 | 27.5 µg/mL (≈ 82.7 µM)
COc1cc2c(cc1OCCCN1CCCC1)N=C(N)C21CCC1 | > 49 µg/mL
COc1ccc(-c2[nH]nc3ncc(-c4ccc(CO)cc4)nc23)cc1F | < 1 µg/mL
Cc1noc([C@@H]2CN(C(=O)c3nn(C)c4ccccc34)C[C@H]2CO)n1 | > 100 µg/mL
CCOc1ccc(CCNC(=O)c2cc3sccc3n2C(C)C)cc1OCC | 1.62 µg/mL (≈ 4.05 µM)
C[S+](=O)([O-])c1ccc(-c2nc(C(=O)N3CCOCC3)n3ccccc23)cc1 | > 57 µg/mL
Cc1ccccc1C(=O)N1CCc2cc(-c3nc(NC(=O)c4ccc5c(c4)OCO5)sc3C)ccc21 | < 1 µg/mL

The remaining lines, values ahead:

solubility kinetic | Structure (SMILES)
< 1 µg/mL | CCCCCCOc1ccc(OC(=O)c2ccncc2)cc1
< 1 µg/mL | O=C([C@H](Cc1ccc(O[S+](=O)([O-])c2cccc3cnccc23)cc1)N[S+](=O)([O-])c1cccc2cnccc12)N1CCN(Cc2ccccc2)CC1
4.03 µg/mL (≈ 8.68 µM) | Cc1cnc(SCc2ccccn2)nc1C1CCCN(C(=O)c2scc3c2CCCC3)C1 (centres undefined)
8.98 µg/mL (≈ 20.4 µM) | CC(=O)c1c(C)[nH]c(C(=O)Nc2cccc([S+](=O)([O-])N3CCC(F)(F)CC3)c2)c1C
< 1 µg/mL | O=[S+]([O-])(Nc1nccs1)c1ccc(NCc2cc(Cl)cc(Br)c2O)cc1
> 49 µg/mL | Cc1cc(-c2nnc3n2CCCCC3)c(C)n1-c1cccc(C#N)c1
13 µg/mL (≈ 32.7 µM) | COc1ccnc(NC(=S)N2CCN(c3cccc(C(F)(F)F)c3)CC2)c1
> 65 µg/mL | Cc1cc(NS(=O)(=O)c2ccc(NC(=O)Cc3ccc(Cl)c(Cl)c3)cc2)no1
< 1 µg/mL | COc1ccc(C(=O)Nc2ccc3c(c2)N(C2CCCC2)C(=O)c2ccccc2S3)cc1OC
> 43 µg/mL | O=C(Cc1ccc(Cl)cc1)Nc1cnccc1C(=O)O
< 1 µg/mL | O=C(NC1CCCc2c1[nH]c1ccc(Cl)cc21)c1ccncc1 (centres undefined)
2.73 µg/mL (≈ 6.84 µM) | O=C(Nc1cccc(Cc2ccccc2)n1)c1ccc(-c2cccc([N+](=O)[O-])c2)o1
< 1 µg/mL | COc1ccc(-c2cc(C)nc3c(-c4ccc(OC)c(OC)c4)c(C)nn23)cc1
3.88 µg/mL (≈ 9.84 µM) | Cc1ccnc(NC(=S)N2CCN(c3cccc(C(F)(F)F)c3)C[C@@H]2C)c1
37.9 µg/mL (≈ 89.7 µM) | Cc1noc(-c2cn(C3CCN(C(=O)c4ccc(OC(F)(F)F)cc4)CC3)nn2)n1
36.5 µg/mL (≈ 107 µM) | Cc1cc(-c2nnc3n2CCCCC3)c(C)n1-c1cccc(Cl)c1
42.6 µg/mL (≈ 91.4 µM) | COc1ccccc1S(=O)(=O)Nc1cnccc1C(=O)Nc1nc(-c2ccccc2)cs1
> 55 µg/mL | CN(Cc1ccccc1)C(=O)C1CCN(Cc2cccc3ccccc23)CC1
< 1 µg/mL | CC1=C(C(=O)Nc2nncs2)C(c2ccccc2Br)N=C(Nc2nc3ccccc3o2)N1 (centres undefined)
5.75 µg/mL (≈ 14.3 µM) | COc1ncccc1-c1cc2[nH]ccc2c(C(=O)NCc2c(C)cc(C)[nH]c2=O)n1
